Test results taken from publication doi:10.1101/471615v1 (biorxiv, 2018).

Experiments:
Assay in all cases: biochemical
BMPR1B = BMPR1B (Homo sapiens, UniProt O00238)
EphA1 = molecular target: T1, EphA1 (Homo sapiens, UniProt P21709)
T1 sequence (P21709 1-976): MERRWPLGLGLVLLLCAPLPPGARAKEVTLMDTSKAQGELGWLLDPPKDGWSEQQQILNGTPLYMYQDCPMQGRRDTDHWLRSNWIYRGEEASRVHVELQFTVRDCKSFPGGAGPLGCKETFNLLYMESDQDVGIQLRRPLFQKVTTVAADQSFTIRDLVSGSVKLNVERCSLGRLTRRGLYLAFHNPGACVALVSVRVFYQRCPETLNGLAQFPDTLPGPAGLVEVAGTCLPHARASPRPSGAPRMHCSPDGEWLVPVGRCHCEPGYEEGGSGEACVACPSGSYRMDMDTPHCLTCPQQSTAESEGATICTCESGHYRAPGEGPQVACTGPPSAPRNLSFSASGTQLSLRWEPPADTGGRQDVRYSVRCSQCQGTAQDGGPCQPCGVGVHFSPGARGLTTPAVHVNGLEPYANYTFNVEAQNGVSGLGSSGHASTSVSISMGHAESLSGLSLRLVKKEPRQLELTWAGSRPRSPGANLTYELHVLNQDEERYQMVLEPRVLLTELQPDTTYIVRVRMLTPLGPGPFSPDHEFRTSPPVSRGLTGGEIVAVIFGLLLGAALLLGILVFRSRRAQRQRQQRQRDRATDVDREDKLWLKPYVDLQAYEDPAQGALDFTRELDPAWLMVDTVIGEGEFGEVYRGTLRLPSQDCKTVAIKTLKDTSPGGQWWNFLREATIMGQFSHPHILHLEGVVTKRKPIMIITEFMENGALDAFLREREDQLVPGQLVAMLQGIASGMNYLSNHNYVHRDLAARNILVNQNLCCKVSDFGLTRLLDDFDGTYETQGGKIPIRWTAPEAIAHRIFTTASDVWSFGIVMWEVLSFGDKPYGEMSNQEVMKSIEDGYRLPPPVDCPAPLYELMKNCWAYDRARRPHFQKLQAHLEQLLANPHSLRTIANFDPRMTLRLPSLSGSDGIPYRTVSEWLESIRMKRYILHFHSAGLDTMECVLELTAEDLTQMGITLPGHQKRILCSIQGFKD

ABL1-non-Phos. = ABL1-non-Phos. (Homo sapiens, UniProt P00519)
[1] = molecular target: receptor-interacting protein kinase 2, RIPK2 (Homo sapiens, UniProt O43353)
TXK = molecular target: T2, TXK (Homo sapiens, UniProt P42681)
T2 sequence (P42681 1-527): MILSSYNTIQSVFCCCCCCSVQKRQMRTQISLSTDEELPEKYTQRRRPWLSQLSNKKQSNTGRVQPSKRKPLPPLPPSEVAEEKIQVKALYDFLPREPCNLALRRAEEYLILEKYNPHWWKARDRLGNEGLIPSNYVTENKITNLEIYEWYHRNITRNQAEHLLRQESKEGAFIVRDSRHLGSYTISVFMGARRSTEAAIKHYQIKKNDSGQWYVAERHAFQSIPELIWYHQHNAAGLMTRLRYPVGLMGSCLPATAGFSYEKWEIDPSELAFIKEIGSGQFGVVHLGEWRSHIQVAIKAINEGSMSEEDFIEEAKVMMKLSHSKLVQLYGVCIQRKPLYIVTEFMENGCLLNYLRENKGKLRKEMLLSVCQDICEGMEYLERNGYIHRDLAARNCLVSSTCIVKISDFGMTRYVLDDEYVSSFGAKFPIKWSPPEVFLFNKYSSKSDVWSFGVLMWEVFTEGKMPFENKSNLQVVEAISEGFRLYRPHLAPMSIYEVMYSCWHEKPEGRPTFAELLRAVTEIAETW

EphA8 = molecular target: T3, EphA8 (Homo sapiens, UniProt P29322)
T3 sequence (P29322 1-1005): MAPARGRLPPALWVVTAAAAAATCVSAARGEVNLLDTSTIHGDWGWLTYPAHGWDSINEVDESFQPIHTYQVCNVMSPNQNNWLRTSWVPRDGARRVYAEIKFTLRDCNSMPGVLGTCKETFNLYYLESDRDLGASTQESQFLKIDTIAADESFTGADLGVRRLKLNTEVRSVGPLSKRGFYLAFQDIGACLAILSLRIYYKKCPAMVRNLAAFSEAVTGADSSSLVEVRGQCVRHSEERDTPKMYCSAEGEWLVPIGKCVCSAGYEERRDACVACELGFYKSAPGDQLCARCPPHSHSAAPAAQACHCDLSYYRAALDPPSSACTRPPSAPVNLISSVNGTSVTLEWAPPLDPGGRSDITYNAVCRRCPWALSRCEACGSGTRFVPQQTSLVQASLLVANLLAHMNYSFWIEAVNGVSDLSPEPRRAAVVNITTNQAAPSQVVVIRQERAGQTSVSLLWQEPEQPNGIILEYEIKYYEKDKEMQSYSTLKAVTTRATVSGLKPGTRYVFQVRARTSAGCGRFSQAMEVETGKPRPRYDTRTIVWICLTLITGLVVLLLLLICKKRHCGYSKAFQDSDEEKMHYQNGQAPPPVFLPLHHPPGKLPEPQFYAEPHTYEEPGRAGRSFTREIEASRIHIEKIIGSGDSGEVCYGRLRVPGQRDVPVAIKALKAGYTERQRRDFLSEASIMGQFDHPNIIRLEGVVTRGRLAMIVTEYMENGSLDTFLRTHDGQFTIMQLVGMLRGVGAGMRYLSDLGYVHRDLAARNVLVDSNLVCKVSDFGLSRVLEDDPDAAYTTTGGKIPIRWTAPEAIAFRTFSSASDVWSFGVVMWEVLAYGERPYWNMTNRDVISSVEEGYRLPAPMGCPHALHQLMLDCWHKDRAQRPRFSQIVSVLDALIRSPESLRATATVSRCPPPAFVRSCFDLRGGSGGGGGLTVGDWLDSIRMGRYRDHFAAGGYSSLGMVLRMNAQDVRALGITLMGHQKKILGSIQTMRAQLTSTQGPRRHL

Sequence of BMPR1B (O00238 whole entry): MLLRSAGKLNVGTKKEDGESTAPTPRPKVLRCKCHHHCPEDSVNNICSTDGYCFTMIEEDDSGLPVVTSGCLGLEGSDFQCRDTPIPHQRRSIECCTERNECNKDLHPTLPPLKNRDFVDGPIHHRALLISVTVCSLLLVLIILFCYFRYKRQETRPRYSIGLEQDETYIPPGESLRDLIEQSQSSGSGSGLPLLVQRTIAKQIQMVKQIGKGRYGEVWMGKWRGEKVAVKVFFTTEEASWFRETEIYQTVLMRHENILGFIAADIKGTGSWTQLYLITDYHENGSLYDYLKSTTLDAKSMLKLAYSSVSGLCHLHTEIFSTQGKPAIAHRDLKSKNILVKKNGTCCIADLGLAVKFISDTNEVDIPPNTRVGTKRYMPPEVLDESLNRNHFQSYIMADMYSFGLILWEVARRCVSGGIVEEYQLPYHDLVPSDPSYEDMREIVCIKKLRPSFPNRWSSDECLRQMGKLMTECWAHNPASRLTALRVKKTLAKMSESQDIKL
Sequence of receptor-interacting protein kinase 2, RIPK2 (O43353 whole entry): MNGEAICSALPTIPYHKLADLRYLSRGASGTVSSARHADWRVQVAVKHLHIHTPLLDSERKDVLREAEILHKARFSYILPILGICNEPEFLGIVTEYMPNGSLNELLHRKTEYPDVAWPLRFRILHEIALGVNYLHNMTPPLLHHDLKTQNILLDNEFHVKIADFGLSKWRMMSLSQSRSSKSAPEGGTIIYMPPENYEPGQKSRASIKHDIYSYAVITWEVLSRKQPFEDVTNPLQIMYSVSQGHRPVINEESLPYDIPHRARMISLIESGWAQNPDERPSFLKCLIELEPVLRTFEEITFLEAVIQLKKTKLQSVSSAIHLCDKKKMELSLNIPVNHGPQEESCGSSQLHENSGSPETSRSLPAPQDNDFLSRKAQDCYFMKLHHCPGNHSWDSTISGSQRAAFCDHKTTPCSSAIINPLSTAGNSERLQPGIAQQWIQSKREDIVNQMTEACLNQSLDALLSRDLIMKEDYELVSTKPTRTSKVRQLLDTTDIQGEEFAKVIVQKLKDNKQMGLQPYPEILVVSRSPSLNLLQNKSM
Sequence of ABL1-non-Phos. (P00519 whole entry): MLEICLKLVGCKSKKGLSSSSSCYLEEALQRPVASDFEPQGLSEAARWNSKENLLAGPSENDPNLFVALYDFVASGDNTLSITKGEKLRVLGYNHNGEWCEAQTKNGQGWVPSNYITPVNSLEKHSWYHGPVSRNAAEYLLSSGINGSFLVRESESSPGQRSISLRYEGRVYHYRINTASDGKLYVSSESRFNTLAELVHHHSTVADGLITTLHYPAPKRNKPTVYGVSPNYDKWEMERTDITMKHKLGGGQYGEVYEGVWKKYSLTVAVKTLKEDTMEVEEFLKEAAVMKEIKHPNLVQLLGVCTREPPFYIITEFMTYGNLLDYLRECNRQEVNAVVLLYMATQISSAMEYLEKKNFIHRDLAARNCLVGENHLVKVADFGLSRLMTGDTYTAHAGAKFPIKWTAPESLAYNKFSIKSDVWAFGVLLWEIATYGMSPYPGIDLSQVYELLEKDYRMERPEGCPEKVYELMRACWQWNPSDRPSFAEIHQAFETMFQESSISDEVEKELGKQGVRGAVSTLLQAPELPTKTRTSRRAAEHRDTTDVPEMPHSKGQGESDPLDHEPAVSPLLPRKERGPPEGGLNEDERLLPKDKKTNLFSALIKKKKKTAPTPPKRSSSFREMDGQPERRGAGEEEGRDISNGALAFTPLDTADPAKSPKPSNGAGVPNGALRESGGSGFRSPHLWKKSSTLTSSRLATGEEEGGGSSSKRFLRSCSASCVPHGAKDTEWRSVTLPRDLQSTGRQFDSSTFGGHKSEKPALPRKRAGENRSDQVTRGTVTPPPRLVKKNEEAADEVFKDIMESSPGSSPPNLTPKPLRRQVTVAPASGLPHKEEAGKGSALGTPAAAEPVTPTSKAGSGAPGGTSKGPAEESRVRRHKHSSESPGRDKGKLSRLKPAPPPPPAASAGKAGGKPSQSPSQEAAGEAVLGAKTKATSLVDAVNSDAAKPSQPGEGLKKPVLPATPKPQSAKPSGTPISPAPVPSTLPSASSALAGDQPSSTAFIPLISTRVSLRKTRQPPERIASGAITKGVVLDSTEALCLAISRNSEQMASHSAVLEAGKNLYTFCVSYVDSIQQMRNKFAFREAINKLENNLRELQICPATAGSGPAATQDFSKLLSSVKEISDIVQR

Kd (BMPR1B): > 10 µM | Kd (EphA1): > 10 µM | Kd (ABL1-non-Phos.): > 10 µM | Kd [1]: > 10 µM | Kd (TXK): > 10 µM | Kd (EphA8): > 10 µM
Structure (SMILES): COc1cc(N(C)c2ccnc3ccc(C(F)(F)F)cc23)cc(OC)c1OC [compound 21, negative control (21)]
